Laboratory results reported in ChEMBL document CHEMBL1201862, “PubChem BioAssay data set” (2004).
Active and inactive are the calls of the source.

Experiments:
[1] = molecular target: E3 ubiquitin-protein ligase Mdm2 (Homo sapiens, UniProt Q00987); assay: enhancers of MDM2-luciferase reporter signal, concentration-effect titration, project on inhibitors of MDM2 ubiquitin ligase, cellular assay, luminescent readout, 384-well plate format (AID 1394); type: functional;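 also: MDM2 E3 inhibitors raise luminescence so EC50 is for signal enhancement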
Sequence of E3 ubiquitin-protein ligase Mdm2 (Q00987 whole entry): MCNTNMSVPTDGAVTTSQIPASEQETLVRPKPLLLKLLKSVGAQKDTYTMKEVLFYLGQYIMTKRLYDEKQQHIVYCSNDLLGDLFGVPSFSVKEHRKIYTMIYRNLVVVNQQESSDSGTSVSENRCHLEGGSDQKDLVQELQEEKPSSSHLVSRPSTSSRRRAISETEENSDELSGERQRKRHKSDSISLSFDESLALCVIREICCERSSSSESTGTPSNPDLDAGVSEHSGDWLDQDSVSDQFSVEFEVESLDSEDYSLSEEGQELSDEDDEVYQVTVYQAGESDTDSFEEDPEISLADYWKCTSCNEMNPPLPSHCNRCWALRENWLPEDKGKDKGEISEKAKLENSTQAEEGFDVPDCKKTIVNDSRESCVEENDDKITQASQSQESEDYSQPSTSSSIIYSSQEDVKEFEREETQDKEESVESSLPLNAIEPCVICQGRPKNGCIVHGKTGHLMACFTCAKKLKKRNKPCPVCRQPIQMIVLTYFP

[2] = molecular target: Transthyretin (Homo sapiens, UniProt P02766); assay: Luminescence-based cell-based high throughput dose response assay to identify activators of Transthyretin (TTR) transcription.; type: functional
[3] = molecular target: Paired box protein Pax-8 (Homo sapiens, UniProt Q06710); assay: inhibitors of PAX8-driven TPO luciferase reporter, dose response, RMG-I cells, cherry-pick (AID 687027); type: functional, cell-based;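 also: luciferase reporter driven by Pax8 target thyroperoxidase promoter measured by SteadyGlo luminescence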
Sequence of Paired box protein Pax-8 (Q06710 whole entry): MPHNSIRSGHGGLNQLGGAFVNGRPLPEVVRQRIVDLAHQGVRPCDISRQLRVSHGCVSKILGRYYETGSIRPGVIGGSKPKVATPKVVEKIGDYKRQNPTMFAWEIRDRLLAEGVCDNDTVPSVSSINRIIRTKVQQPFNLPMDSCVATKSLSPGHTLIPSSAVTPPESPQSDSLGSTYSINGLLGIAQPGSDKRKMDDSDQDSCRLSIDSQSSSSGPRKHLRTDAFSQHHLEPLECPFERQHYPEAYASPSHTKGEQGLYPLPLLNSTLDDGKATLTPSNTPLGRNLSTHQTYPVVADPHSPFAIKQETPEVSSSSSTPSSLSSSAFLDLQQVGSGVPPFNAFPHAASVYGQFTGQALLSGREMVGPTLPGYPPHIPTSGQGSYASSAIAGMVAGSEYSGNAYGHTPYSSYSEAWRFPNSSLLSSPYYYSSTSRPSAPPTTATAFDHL

[4] = IOSE-T80 ovarian epithelial cell cytotoxicity, dose response, cytotoxicity control for PAX8 inhibitor project, plate reader, dry powder samples (AID 743045); type: functional, cell-based
[5] = A2780 ovarian cancer cell cytotoxicity, dose response, cytotoxicity control, plate reader, dry powder samples (AID 743046); type: functional, cell-based
[6] = NIH:OVCAR-3 ovarian cancer cell cytotoxicity, dose response, PAX8 inhibitor project, plate reader, dry powder samples (AID 743044); type: functional, cell-based
[7] = IGROV1 ovarian cancer cell cytotoxicity, dose response, PAX8 inhibitor project, plate reader, dry powder samples (AID 743043); type: functional, cell-based; conditions: IGROV-1
[8] = cytotoxicity in OVCAR8 ovarian cancer cells, dose response, PAX8 project, cell-based, plate reader, dry powder samples (AID 743197); type: functional; conditions: OVCAR-8
[9] = P. falciparum Dd2 growth inhibitors, dose response, SYBR Green, cherry-picked samples (AID 1159567); type: functional, cell-based
[10] = HepG2 cell cytotoxicity, dose response, cytotoxicity control, cherry-picked samples (AID 1159577); type: functional, cell-based
[11] = half-maximal inhibitory concentration for glucagon-like peptide-1 release, STC-1 cell line, dose-response (AID 1117345); type: functional, cell-based
[12] = Glucagon-like peptide 1 release potency, NCI-H716 cell line, dose-response, half-maximal inhibitory concentration (AID 1117344); type: functional, cell-based
[13] = Dose-response inhibition of insulin secretion in a rat insulinoma line at 5 mM glucose (AID 1117331); type: functional, cell-based; conditions: INS-1E
[14] = cells; type: functional, cell-based; conditions: INS-1E

In the case of COc1ccccc1N1CCN(C(c2ccc(C)cc2)c2nnnn2C(C)C)CC1 (centres undefined), the EC50 [1] is reported as 14.5 µM (not active).

In the case of CCn1ncc(/C=N\NC(=O)c2csc3ccccc23)c1C, the EC50 [2] is reported as > 167 µM (inactive).

With O=C(Nc1cccc(F)c1)N1CCCCN2[C@@H](CO)[C@H](c3ccc(C#Cc4ccccc4)cc3)[C@@H]2C1 the AC50 [3] was 9.89 µM (active), the AC50 [4] was 63.4 µM (active) and the AC50 [5] was 19.8 µM (active). The AC50 [6] was 17.2 µM (active), the AC50 [7] was 29.4 µM (active) and the AC50 [8] was 65.6 µM (active). The AC50 [9] was < 0.3 µM (active) and the AC50 [10] was 7.6 µM (active).

With Nc1cc(C(F)(F)F)ccc1S the IC50 [11] was 1.16 µM (active) and the IC50 [12] was 15.3 µM (inactive).

With Nc1c2c(nc3ccccc13)CCCC2 [TACRINE] the IC50 [13] was 17.6 µM (inactive) and the IC50 [14] was > 33.3 µM (inactive).
